Results published in publication PMC2713172 (Biochemistry, 2008).

How the values were obtained:
CYP2C9 F476W mutant = CYP2C9 F476W mutant (Homo sapiens, UniProt P11712, F476W); assay: 1H-NMR T1 relaxation, distances of ligand protons from the heme iron
wild-type CYP2C9 = wild-type CYP2C9 (Homo sapiens, UniProt P11712)
CYP2C9 F100L mutant = CYP2C9 F100L mutant (Homo sapiens, UniProt P11712, F100L)
[1] = target: CYP2C9 F114L/F476L double mutant (Homo sapiens, UniProt P11712, F114L/F476L); conditions: F114L/F476L
CYP2C9 F476L mutant = CYP2C9 F476L mutant (Homo sapiens, UniProt P11712, F476L); conditions: F476L

Compound: C[C@H](C(=O)O)c1ccc(-c2ccccc2)c(F)c1 [(S)-flurbiprofen]
- T1, 2C9 (CYP2C9 F476W mutant; proton H2): 2.56 (0.15) seconds
- r, distance of proton from the heme iron (CYP2C9 F476W mutant; proton H2): 6.58 (0.28) angstroms
- T1, 2C9 + CO (CYP2C9 F476W mutant; proton H2, dithionite/CO): 2.34 (0.14) seconds
- T1, 2C9 (CYP2C9 F476W mutant; proton H4′): 2.88 (0.14) seconds
- r, distance of proton from the heme iron (CYP2C9 F476W mutant; proton H4′): 6.40 (0.32) angstroms
- T1, 2C9 + CO (CYP2C9 F476W mutant; proton H4′, dithionite/CO): 2.55 (0.16) seconds
- T1, 2C9 (CYP2C9 F476W mutant; proton H5): 2.11 (0.10) seconds
- r, distance of proton from the heme iron (CYP2C9 F476W mutant; proton H5): 6.47 (0.24) angstroms
- T1, 2C9 + CO (CYP2C9 F476W mutant; proton H5, dithionite/CO): 2.24 (0.18) seconds
- T1, 2C9 (CYP2C9 F476W mutant; proton H6): 1.78 (0.08) seconds
- r, distance of proton from the heme iron (CYP2C9 F476W mutant; proton H6): 6.79 (0.22) angstroms
- T1, 2C9 + CO (CYP2C9 F476W mutant; proton H6, dithionite/CO): 1.85 (0.08) seconds
- T1, 2C9 (CYP2C9 F476W mutant; protons CH3): 0.67 (0.01) seconds
- r, distance of proton from the heme iron (CYP2C9 F476W mutant; protons CH3): 5.62 (0.25) angstroms
- T1, 2C9 + CO (CYP2C9 F476W mutant; protons CH3, dithionite/CO): 0.65 (0.03) seconds
- T1, 2C9 (CYP2C9 F476W mutant; protons H2′/6′): 2.38 (0.06) seconds
- r, distance of proton from the heme iron (CYP2C9 F476W mutant; protons H2′/6′): 7.15 (0.13) angstroms
- T1, 2C9 + CO (CYP2C9 F476W mutant; protons H2′/6′, dithionite/CO): 2.54 (0.07) seconds
- T1, 2C9 (CYP2C9 F476W mutant; protons H3′/5′): 2.39 (0.08) seconds
- r, distance of proton from the heme iron (CYP2C9 F476W mutant; protons H3′/5′): 6.49 (0.20) angstroms
- T1, 2C9 + CO (CYP2C9 F476W mutant; protons H3′/5′, dithionite/CO): 2.39 (0.16) seconds
- H2O2/O2 (wild-type CYP2C9; WT): 0.43
- H2O/Metabolite (wild-type CYP2C9; WT): 0.7
- Metabolite/NADPH (wild-type CYP2C9; WT, coupling efficiency): 0.21
- coupling of hydroxylation to NADPH consumption (wild-type CYP2C9; wild-type CYP2C9): ~ 20%
- percent of wild-type kcat/Km (CYP2C9 F100L mutant): 100%
- kcat (CYP2C9 F100L mutant; substrate hydroxylation): 12.3 ± 0.7 min⁻¹
- percent of wild-type ΔA/K [1]: 8%
- ΔA/K [1]: 0.4 μM^−1 × 10^−3
- ΔAmax (maximum observed difference 390–420 nm) [1]: 4.4 ± 0.2 ×10^−3
- percent of wild-type ΔA/K (CYP2C9 F476L mutant): 23%
- ΔA/K (CYP2C9 F476L mutant): 1.2 μM^−1 × 10^−3
- ΔAmax (maximum observed difference 390–420 nm) (CYP2C9 F476L mutant): 11 ± 0.4 ×10^−3
